# Results: patent US7858348B2, “N-acetyl-(R,S)-beta-amino acid acylase gene” (Ajinomoto Co., Inc., priority 2006, dated 2010)
# Experiments:
# Type in all cases: biochemical
# [1] = system: N-acetyl-(R)-β-amino acid acylase derived from Burkholderia sp. AJ110349 (JM109/ptrp4_3BR cell-free extract); experiment: Substrate specificity and optical selectivity with cell-free extract of JM109/ptrp4_3BR; conditions: for Concentration of acetic acid detected: JM109/ptrp4_3BR 50 mU cell-free extract, 0.2 percent substrate, 37° C.; for optical selectivity of β-amino acid produced (ee) / β-amino acid enantiomer detected in the reaction solution: JM109/ptrp4—3BR, chiral HPLC; for optical selectivity of β-amino acid produced (ee): after reacting for 24 hours; for β-amino acid enantiomer detected in the reaction solution: 24 hours (10 minutes for the 3,4-(—O—CH2—O—) substrate)
# Experimental: (§1) An Astec Chirobiotec T (0.46 cm in diameter, 25 cm) column was employed. A 90 percent MeOH mobile phase was employed. The temperature was 40° C. and the flow rate was 0.4 mL/minute. Optical selectivity was determined based on comparison with various standard (R) and (S) standard products under UV detection conditions of 205 nm.
# (§2) The column employed was comprised of an Inertsil ODS3 (0.46 cm in diameter, 5 cm) made by GL Science and a Chiralpak WH (0.46 cm in diameter, 25 cm) made by Daisel Chemical Industries, arranged consecutively in that order. The mobile phase was 1 mM CuSO4, 10 percent MeOH. The temperature was 50° C. and the flow rate was 1.0 mL/minute. Detection was conducted with a UV detector at 210 nm and optical selectivity was determined by comparison with standard (R) and (S) products.
# (§3) JM109/ptrp4—3BR, JM109/pSFN—2BS, and JM109/pSFN—1VR were precultured for 16 hours at 37° C. in LB medium containing 100 mg/L of ampicillin. 1 mL quantity of the cultured bacterial cells was transplanted to 50 mL of TB medium containing 100 mg/L of ampicillin and cultured for 16 hours at 30° C. The bacterial cells obtained were centrifugally separated to concentrate the bacteria cells. The bacterial cells were washed with 50 mM Tris buffer solution (pH 7.6) and the same buffer solution was used to prepare a bacterial cell suspension. Ultrasonic rupturing was employed to rupture the bacterial cells. A supernatant solution obtained by centrifugal separation (15,000 g, 10 minutes, 4° C.) was employed as a cell-free extract, and substrate specificity for the various N-acetyl-(R,S)-β-amino acids described above in Embodiments 2-1 to 9 was examined.
# (§4) After adjusting the enzymes by the above methods, their activity was measured. Activity producing 1 μmol of β-Phe per minute from N-acetyl-(R,S)-β-Phe was denoted as 1 U. In the various examination of substrate specificity, 50 mU cell-free extracts were employed. As a negative control, instead of the cell-free medium prepared as set forth above, a 50 mM Tris buffer solution (pH 7.6) that had been reacted with each of the substrates was employed as an “Enzyme-” test zone, and instead of the individual substrates, 50 mM Tris buffer solution (pH 7.6) that had been reacted with each of the cell-free extracts was employed as a “Substrate-” test zone.
# (§5) 50 mM Tris-HCl (pH 7.6) and 0.2 percent of various N-acetyl-(R,S)-β-amino acids were reacted at 37° C. for 1 hour or 24 hours, and then processed for 10 minutes at 96° C. to stop the reactions. The quantity of acetic acid produced by the decomposition of acetyl groups was determined by the protocol of an acetic acid kit (Roche).
# (§6) After reacting for 24 hours, the samples were analyzed with various chiral resolution columns to determine optical selectivity.
# (§7) A 300 μL quantity of culture solution was washed with 50 mM Tris-HCl (pH 7.6), suspended in 300 μL of 50 mM Tris-HCl (pH 7.6), and subjected to ultrasonic rupturing to rupture the bacteria. A supernatant solution obtained by centrifugal separation (15,000 g, 10 minutes, 4° C.) was employed as cell-free extract in the reaction.
# (§8) 50 mM Tris-HCl (pH 7.6) and 0.2 percent N-acetyl-(R,S)-3,4-(—O—CH2—O—)-β-phenylalanine were reacted for 10 minutes at 37° C. When 3,4-(—O—CH2—O—)-β-phenylalanine was quantized under the separation conditions of N-acetyl-β-Phe and β-Phe, the activity per mL of cell-free extract was 0.2 U for JM109/ptrp4—3BR, 3.9 U for JM109/pSFN—2BS, and 27.8 U for JM109/pSFN—1VR.
# (§9) Various enzymes were prepared from the same bacterial cells and by the same methods as in 12-1, and 50 mU cell-free extracts were employed in the reaction. 50 mM Tris-HCl (pH 7.6) and 1 percent N-acetyl-(R,S)-β-3-Pyr-Ala were reacted for 1 hour at 37° C., after which the reaction was stopped by treatment at 70° C. for 10 minutes. The quantity of acetic acid generated by the decomposition of acetyl groups was determined by the protocol of an acetic acid kit (Roche).
# [2] = system: N-acetyl-(S)-β-amino acid acylase derived from Burkholderia sp. AJ110349 (JM109/pSFN_2BS cell-free extract); experiment: Substrate specificity and optical selectivity with cell-free extract of JM109/pSFN_2BS; conditions: for optical selectivity of β-amino acid produced (ee) / β-amino acid enantiomer detected in the reaction solution: JM109/pSFN-2BS, chiral HPLC; for optical selectivity of β-amino acid produced (ee): after reacting for 24 hours; for β-amino acid enantiomer detected in the reaction solution: 24 hours (10 minutes for the 3,4-(—O—CH2—O—) substrate); for Concentration of acetic acid detected: JM109/pSFN_2BS 50 mU cell-free extract, 0.2 percent substrate, 37° C.
# Experimental: as §1, §2, §3, §4, §5, §6, §7, §8, §9
# [3] = system: N-acetyl-(R)-β-amino acid acylase derived from Variovorax sp. AJ110348 (JM109/pSFN_1VR cell-free extract); experiment: Substrate specificity and optical selectivity with cell-free extract of JM109/pSFN_1VR; conditions: for Concentration of acetic acid detected: JM109/pSFN_1VR 50 mU cell-free extract, 0.2 percent substrate, 37° C.; for optical selectivity of β-amino acid produced (ee) / β-amino acid enantiomer detected in the reaction solution: JM109/pSFN—1VR, chiral HPLC; for optical selectivity of β-amino acid produced (ee): after reacting for 24 hours; for β-amino acid enantiomer detected in the reaction solution: 24 hours (10 minutes for the 3,4-(—O—CH2—O—) substrate)
# Experimental: as §1, §2, §3, §4, §5, §6, §7, §8, §9
smiles,measurement,setting,value
"CC(=O)NC(CC(=O)O)c1ccc(O)cc1 (racemic) [N-Ac-β-Tyr, N-acetyl-(R,S)-β-Tyr]",Concentration of acetic acid detected,[1]; 1 hour,4.5 mM
same,Concentration of acetic acid detected,[1]; 24 hours,4.9 mM
same,optical selectivity of β-amino acid produced (ee),[1],61 % ee
same,β-amino acid enantiomer detected in the reaction solution,[1],(R)-β-Tyr was detected
same,optical selectivity of β-amino acid produced (ee),[2],> 99 % ee
same,β-amino acid enantiomer detected in the reaction solution,[2],(S)-β-Tyr was detected
same,Concentration of acetic acid detected,[2]; 1 hour,5.2 mM
same,Concentration of acetic acid detected,[2]; 24 hours,5.2 mM
same,Concentration of acetic acid detected,[3]; 1 hour,5.1 mM
same,Concentration of acetic acid detected,[3]; 24 hours,4.6 mM
same,optical selectivity of β-amino acid produced (ee),[3],> 99 % ee
same,β-amino acid enantiomer detected in the reaction solution,[3],(R)-β-Tyr was detected
"CC(=O)NC(CC(=O)O)C(C)C (racemic) [N-Ac-β-Leu, N-acetyl-(R,S)-β-Leu]",Concentration of acetic acid detected,[1]; 1 hour,0.2 mM
same,Concentration of acetic acid detected,[1]; 24 hours,5.6 mM
same,optical selectivity of β-amino acid produced (ee),[1],> 99 % ee
same,β-amino acid enantiomer detected in the reaction solution,[1],(R)-β-Leu was detected
same,optical selectivity of β-amino acid produced (ee),[2],> 99 % ee
same,β-amino acid enantiomer detected in the reaction solution,[2],(S)-β-Leu was detected
same,Concentration of acetic acid detected,[2]; 1 hour,1.6 mM
same,Concentration of acetic acid detected,[2]; 24 hours,6.2 mM
same,Concentration of acetic acid detected,[3]; 1 hour,0.0 mM
same,Concentration of acetic acid detected,[3]; 24 hours,1.0 mM
same,optical selectivity of β-amino acid produced (ee),[3],> 99 % ee
same,β-amino acid enantiomer detected in the reaction solution,[3],(R)-β-Leu was detected
"CC(=O)NC(CC(=O)O)c1ccc(F)cc1 (racemic) [N-Ac-β-4-F-Phe, N-acetyl-(R,S)-4-fluoro-β-Phe]",Concentration of acetic acid detected,[1]; 1 hour,4.6 mM
same,Concentration of acetic acid detected,[1]; 24 hours,5.4 mM
same,optical selectivity of β-amino acid produced (ee),[1],94 % ee
same,β-amino acid enantiomer detected in the reaction solution,[1],(R)-4-fluoro-β-Phe was detected
same,optical selectivity of β-amino acid produced (ee),[2],> 99 % ee
same,β-amino acid enantiomer detected in the reaction solution,[2],(S)-4-fluoro-β-Phe was detected
same,Concentration of acetic acid detected,[2]; 1 hour,5.2 mM
same,Concentration of acetic acid detected,[2]; 24 hours,5.1 mM
same,Concentration of acetic acid detected,[3]; 1 hour,4.6 mM
same,Concentration of acetic acid detected,[3]; 24 hours,4.7 mM
same,optical selectivity of β-amino acid produced (ee),[3],> 99 % ee
same,β-amino acid enantiomer detected in the reaction solution,[3],(R)-4-fluoro-β-Phe was detected
"CC(=O)NC(CC(=O)O)c1ccccc1 (racemic) [N-Ac-β-Phe, N-acetyl-(R,S)-β-Phe]",Concentration of acetic acid detected,[1]; 1 hour,5.0 mM
same,Concentration of acetic acid detected,[2]; 1 hour,5.3 mM
same,Concentration of acetic acid detected,[3]; 1 hour,5.2 mM
"CC(=O)NC(CC(=O)O)c1cccnc1 (racemic) [N-acetyl-(R,S)-β-3-Pyr-Ala]",acetic acid detected,"[1]; JM109/ptrp4—3BR 50 mU cell-free extract, 1 percent substrate, 1 hour at 37° C.",3.5 mM
same,acetic acid detected,"[2]; JM109/pSFN—2BS 50 mU cell-free extract, 1 percent substrate, 1 hour at 37° C.",8.4 mM
same,acetic acid detected,"[3]; JM109/pSFN—1VR 50 mU cell-free extract, 1 percent substrate, 1 hour at 37° C.",0.8 mM
"CC(=O)NC(C)CC(=O)O (racemic) [N-Ac-β-Aba, N-acetyl-(R,S)-β-aminobutyric acid]",Concentration of acetic acid detected,[1]; 1 hour,0.1 mM
same,Concentration of acetic acid detected,[1]; 24 hours,0.6 mM
same,Concentration of acetic acid detected,[2]; 1 hour,0.1 mM
same,Concentration of acetic acid detected,[2]; 24 hours,0.3 mM
same,Concentration of acetic acid detected,[3]; 1 hour,0.0 mM
same,Concentration of acetic acid detected,[3]; 24 hours,0.1 mM
